Data taken from paper PMC4673272, “Oral nano-delivery of anticancer ginsenoside 25-OCH3-PPD, a natural inhibitor of the MDM2 oncogene: Nanoparticle preparation, characterization, in vitro and in vivo anti-prostate cancer activity, and mechanisms of action” (Oncotarget, 2015).

Columns and labels:
[1] = Maximum tolerated dose (MTD) study; format: in vivo; details: CD-1 mice, oral
Procedure: To assess the possible host toxicity of GS25 and GS25NP and establish initial doses for in vivo treatment, a multi-dose MTD study was initially performed for both GS25 and GS25NP at a dose of 200 mg/kg for 7 days. […] The toxicity studies were continued with dose of 400 mg/kg/d for 7 days using a similar protocol. At the end of the study, all mice were euthanized, and various tissues (liver, lungs, kidneys, spleen, heart, and brain) were collected for a pathological analysis.

[2] = system: DU145 cells; test: Apoptosis, Annexin V-FITC, DU145; format: cell-based, Human; details: DU145, 12.3 μg/mL, 48 h
Procedure: (§1) Assays for cell viability and apoptosis were performed as described previously. In brief, 3–4 × 10^4 cells were seeded in a 96-well plate and treated with various concentrations of GS25 or GS25NP for 24, 48, or 72 h for the MTT assay. To detect apoptosis, 2–3 × 10^5 cells were seeded in 6-well plates and were treated with GS25 or GS25NP for 48 h. Cells positive for Annexin V-FITC and PI were counted on a BD FACSVerse instrument (BD Biosciences, CA, USA).

[3] = Pharmacokinetics and biodistribution in CD-1 mice; format: in vivo
Procedure: Pharmacokinetic studies were carried out in normal CD-1 mice and nude mice bearing PC3 xenograft tumors as described previously. Briefly, male CD-1 mice were divided randomly into four groups with three mice per time point. One group received 20 mg/kg of GS25 in PEG400:EtOH:saline by intravenous injection into the tail vein. One group of mice received GS25 in PEG400:EtOH:saline (57.1:14.3:28.6, v/v/v) at a dose of 100 mg/kg by oral administration. Two groups received GS25NP at a dose of 20 mg/kg and 100 mg/kg by oral administration. Nude mice bearing PC3 xenografts were divided into two groups and given GS25 and GS25NP at a dose of 100 mg/kg by oral administration. For orally-dosed mice, the plasma and various tissues (tumor, liver, lungs, kidneys, spleen, heart, brain, pancreas, fat, stomach, stomach contents, small intestine, small intestine contents, large intestine, and large intestine contents) were collected at 0, 15, 30, and 60 min, and 2, 4, 8, 24, 48, and 72 h after treatment. For mice that received an i.v. injection, various tissues were collected at 0, 5, 10, 30, and 60 min, and 2, 4, 8, 24, 48, and 72 h after treament. The plasma and tissue samples were stored at −80°C until they were analyzed by LC-MS/MS.

[4] = system: DU145 (p53 mutant) cells; test: Cell viability, MTT assay, DU145; format: cell-based, Human; details: GS25 equivalent
Procedure: as §1

[5] = system: LNCaP cells; test: Apoptosis, Annexin V-FITC, LNCaP; format: cell-based, Human; details: 12.3 μg/mL, 48 h
Procedure: as §1

[6] = system: Caco-2 cell monolayers; test: Caco-2 cell monolayer permeability assay; format: in vitro ADME, Human; details: apical to basolateral, 37°C, pH 6.0
Procedure: The Caco-2 cell monolayer permeability assay was performed as reported previously. In brief, Caco-2 cells were seeded onto polycarbonate 6-well Transwell® inserts (mean pore size 3.0 μm, Corning Costar Inc., NY, USA) at a density of 4 × 10^5 cells/well, then the confluent monolayers (10–12 days) were used for permeability studies. The transepithelial electrical resistance (TEER) of the monolayer was measured using an epithelial voltohmmeter (EVOM, WPI Inc., USA) to determine the formation of the monolayer and its integrity during the experiment. The studies were carried out in HBSS containing 30 mM HEPES at pH 6.0. Monolayers were washed with HBSS prior to the experiment, after which 0.5 and 1.2 mL of HBSS was placed into the upper and lower compartments, respectively. A total volume of 100 μL of solution (1 or 5 μg/mL) was taken from the lower compartment at regular intervals over 120 min and replaced with the same volume of fresh buffer, followed by a LC-MS/MS analysis. Apparent permeability coefficients (Papp) were calculated using the equation: (∂Q/∂t)/(A*C0), where “∂Q/∂t” is the permeability rate of the drug across the cells, “A” is the diffusion area of the monolayer and “C0” is the initial concentration of GS25 in the upper compartment.

[7] = system: PC3 xenograft tumors; test: In vivo efficacy and host toxicity in PC3 prostate cancer xenograft model; parameters: species or system nude mice
Procedure: The animal study protocol was approved by the Institutional Animal Use and Care Committee of the Texas Tech University Health Sciences Center. Male athymic pathogen-free nude mice (nu/nu, 4–6 weeks) were purchased from Charles River Laboratories (Wilmington, MA). The PC3 human prostate cancer xenografts were established as reported previously. Briefly, a total of 5 × 10^6 PC3 cells (in 0.1 mL) were subcutaneously injected into the left inguinal area of the mice. All animals were monitored for activity, physical condition, body weight, and tumor growth. When the tumor volume reached ~ 100 mm^3, the mice bearing PC3 xenografts were randomly divided into treatment and control groups (10 mice/each group). GS25NP was dissolved in water and administered by oral gavage at a dose of 20 mg/kg/d or 100 mg/kg/d, 5 day/week for 4 weeks, while GS25 in PEG400:EtOH:saline (57.1:14.3:28.6, v/v/v) was administered at a dose of 100 mg/kg/d for 4 weeks. The control groups received vehicle only or void NPs. At the end of the experiment, xenograft tumors and various organs (liver, lungs, kidneys, spleen, heart, and brain) were excised and snap frozen for Western blotting, immunohistochemical studies, TUNEL assays, and hematoxylin and eosin staining.
All of the staining assays were performed as described previously. Briefly, tissues were fixed and embedded in paraffin, cut into 5 μm sections, and then affixed onto glass slides. For the immunohistochemical studies, the tumor sections were blocked and incubated with a biotinylated anti-human MDM2 antibody (diluted 1:50 in 5% BSA in PBS) for 1–2 h at room temperature. Sections were then incubated with pre-diluted streptavidin-peroxidase HRP conjugates and stained with DAB chromogen according to the manufacturer's instructions. Finally, sections were lightly counterstained with hematoxylin. […] Tissue sections were analyzed under a phase-contrast Olympus microscope (Olympus America Inc).

[8] = system: PC3 cells; test: Apoptosis, Annexin V-FITC, PC3; format: cell-based, Human; details: PC3, 12.3 μg/mL, 48 h
Procedure: as §1

[9] = system: PC3 (p53 null) cells; test: Cell viability, MTT assay, PC3; format: cell-based, Human; details: GS25 equivalent
Procedure: as §1

[10] = system: MDM2; test: Western blotting of MDM2 and apoptosis-related proteins in prostate cancer cells; format: cell-based, Human; details: 2.5 μg/mL, 24 h, LNCaP, DU145, PC3 cells
Procedure: In the in vitro studies, prostate cancer cells with or without GS25 or GS25NP treatment were lysed in NP40 lysis buffer containing a protease inhibitor mixture (Sigma, St. Louis, MO, USA). In the in vivo studies, tumor tissues were removed and homogenized in NP40 lysis buffer (100 mg tumor tissue/1 mL NP40 buffer), and the supernatants of the homogenates was collected. Then, the cell lysates and tumor homogenates were subjected to Western blotting analyses for the expression levels of MDM2 and other related proteins using the methods described in our previous studies.

[11] = system: LNCaP (p53 wild-type) cells; test: Cell viability, MTT assay, LNCaP; format: cell-based, Human; details: GS25 equivalent
Procedure: as §1

[12] = nude mice bearing PC3 xenografts, 4-week oral treatment (GS25 100 mg/kg; GS25NP 20 and 100 mg/kg)

## COC(C)(C)CCC[C@](C)(O)[C@H]1CC[C@]2(C)[C@@H]1[C@H](O)C[C@@H]1[C@@]3(C)CC[C@H](O)C(C)(C)[C@@H]3CC[C@]12C [GS25, 20(s)-25-methoxyl-dammarane-3beta, 12beta, 20-triol]
[1]; 200 or 400 mg/kg/d for 7 days
  Body weight change in MTD study: No significant decrease in mouse body weight
  Histological examination of liver, lungs, kidneys, spleen, heart, brain vs vehicle: no significant differences among the groups
[1]; up to 400 mg/kg/d for 7 days
  Toxicity in MTD study: no toxicity
[2]
  Apoptotic cells: 18.2%
[3]; 100 mg/kg oral vs 20 mg/kg i.v.
  Oral bioavailability: ~ 14.9%
[3]; plasma, 100 mg/kg, p.o.
  AUC0-t: 3.5 µg·h/mL
  Cmax: 0.9 µg/mL
  T1/2: 2.1 h
[4]; treatment time 24 h
  IC50 DU145: 13.1 mg/L
[4]; treatment time 48 h
  IC50 DU145: 8.0 mg/L
[4]; treatment time 72 h
  IC50 DU145: 5.4 mg/L
[5]
  Apoptotic cells: 28.5%
[6]
  Apparent permeability coefficient (Papp): 380 nm/s
[7]; 100 mg/kg oral, 5 days/week for 4 weeks
  Inhibition of PC3 xenograft tumor growth: approximately 41%
[7]; [12]
  Change in average body weight: no significant changes in the average body weights
  Histological findings in liver, lungs, kidneys, spleen, heart, brain vs control: no significant differences in the histological findings
[8]
  Apoptotic cells: 22.9%
[9]; treatment time 24 h
  IC50 PC-3: 10.9 mg/L
[9]; treatment time 48 h
  IC50 PC-3: 6.7 mg/L
[9]; treatment time 72 h
  IC50 PC-3: 3.8 mg/L
[10]
  Effect on MDM2 and apoptosis-associated protein levels (p53, Bax, cleaved-PARP): did not produce significant effects
[11]; treatment time 24 h
  IC50 LNCaP: 18.3 mg/L
[11]; treatment time 48 h
  IC50 LNCaP: 11.6 mg/L
[11]; treatment time 72 h
  IC50 LNCaP: 8.0 mg/L
